Reference: patent US12178809B2, “Pyridinyl sulfonamide derivatives, pharmaceutical compositions and uses thereof” (Boehringer Ingelheim International GmbH, priority 2018, dated 2024)
Structures can show the parent of a compound that is named as a salt. Where two headings read alike, the source gives them in different places.

Assays:
human AOC3 enzyme = human AOC3 enzyme (Homo sapiens (Human), UniProt Q16853); experiment: AOC3 biochemical assay (MAO-Glo)
Excerpt: The MAO-Glo™ Assay (commercially available from PROMEGA, #V1402) provides a sensitive method for the measurement of monoamine oxidase (MAO) activity (Valley, M. P. et al., 2006, Anal. Biochem. 359: 238-246) from a variety of tissues, biofluids or recombinant expressed or purified enzymes. As substrate a derivate of the beetle luciferin ((4S)-4,5-dihydro-2-(6-hydroxybenzothiazolyl)-4-thiazole-carboxylic acid) is used, which is oxidized at a primary amine moiety. After a spontaneous elimination and a catalyzed esterase reaction, the turnover of the luciferine by the luciferase is recorded as a signal of AOC3 activity.
An aliquot of 3 μL of the compound dilution is added to a 384 well plate (Optiplate, PS, flat bottom, white, PERKIN ELMER, #6007290) with a final DMSO concentration of 6.6%. Recombinant CHO cells, overexpressing the human (1500 cells/well), mouse (1000 cells/well) or rat (500 cells/well) AOC3 enzyme are diluted in reaction buffer and added in a volume of 15 μL to the wells. After incubation for 20 minutes at 37° C., 2 μL of MAO substrate (dissolved in DMSO at 16 mM, adjusted to assay concentration in reaction buffer to a final assay concentration of 20 μM) is added and further incubated for 60 minutes at 37° C. The turnover of the substrate is determined by the addition of 20 μL of the detection-mix which was generated by the addition of reconstitution buffer with esterase (PROMEGA, #V1402) to the luciferine detection reagent (PROMEGA, #V1402). After an incubation period of 20 minutes, the luminescent signal is measured with Envision 2104 Multilabel Reader (PERKIN ELMER).

AOC2 = AOC2 (Homo sapiens (Human), UniProt O75106); experiment: AOC2 biochemical assay (Amplex Red)
Sequence of AOC2 (O75106 whole entry): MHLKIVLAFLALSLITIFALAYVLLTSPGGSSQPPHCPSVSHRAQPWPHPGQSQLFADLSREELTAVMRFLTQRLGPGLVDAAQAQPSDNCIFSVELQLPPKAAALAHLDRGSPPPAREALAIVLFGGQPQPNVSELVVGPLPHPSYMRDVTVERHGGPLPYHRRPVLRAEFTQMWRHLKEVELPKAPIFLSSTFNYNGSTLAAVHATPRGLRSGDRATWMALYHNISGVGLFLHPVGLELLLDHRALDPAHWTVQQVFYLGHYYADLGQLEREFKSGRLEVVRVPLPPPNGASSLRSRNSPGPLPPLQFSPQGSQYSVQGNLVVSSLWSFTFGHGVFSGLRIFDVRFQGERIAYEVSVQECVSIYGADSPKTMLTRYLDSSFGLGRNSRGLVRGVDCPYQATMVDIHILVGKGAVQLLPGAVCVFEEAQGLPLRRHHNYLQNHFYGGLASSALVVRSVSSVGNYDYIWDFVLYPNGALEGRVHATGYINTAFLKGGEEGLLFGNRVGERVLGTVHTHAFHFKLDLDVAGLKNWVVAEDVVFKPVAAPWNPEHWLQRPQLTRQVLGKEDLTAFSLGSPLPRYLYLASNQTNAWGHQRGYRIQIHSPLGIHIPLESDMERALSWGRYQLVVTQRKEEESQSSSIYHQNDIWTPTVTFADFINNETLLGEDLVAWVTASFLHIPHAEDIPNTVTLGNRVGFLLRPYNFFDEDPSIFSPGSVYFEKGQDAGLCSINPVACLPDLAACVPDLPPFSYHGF
Description: An aliquot of 5 μL of the compound dilution is added to a 96 well plate (flat bottom F, black, GREINER bio-one, #655900) in a DMSO concentration of 2%. […] Cells are cultured for 3 days in EMEM culture medium containing 10% FCS (#04-00-1A, Biological Industries). After washing twice with ice cold PBS, cells are lysed by mechanic homogenation and cleared supernatants are shock frozen in liquid nitrogen and stored at -80° C. […] An Aliquot of 45 μL is added to the compound dilution and incubated for 30 min at 37° C. The enzymatic reaction is started with the addition of 50 μL of Amplex® Red reaction mix (final assay concentration: 100 mM sodiumphosphate, 120 μM Amplex® Red reagent (#A22177 Molecular Probes), 1.5 U/mL Horseradish Peroxidase (#P8375 Sigma-Aldrich), 2 mM phenylethylamine (#[…] Sigma-Aldrich), 0.05% Pluronic F-127 (#P3000MP Sigma-Aldrich), pH 7.4, 37° C.). The turnover per time of the substrate is determined directly with a fluorescence reader (Ex 540 nm/Em 590 nm) like Envision 2104 Multilabel Reader (PERKIN ELMER) for 60 min.

AOC1 = AOC1 (Homo sapiens (Human), UniProt P19801); experiment: AOC1 biochemical assay (Amplex Red)
Sequence of AOC1 (P19801 20-751): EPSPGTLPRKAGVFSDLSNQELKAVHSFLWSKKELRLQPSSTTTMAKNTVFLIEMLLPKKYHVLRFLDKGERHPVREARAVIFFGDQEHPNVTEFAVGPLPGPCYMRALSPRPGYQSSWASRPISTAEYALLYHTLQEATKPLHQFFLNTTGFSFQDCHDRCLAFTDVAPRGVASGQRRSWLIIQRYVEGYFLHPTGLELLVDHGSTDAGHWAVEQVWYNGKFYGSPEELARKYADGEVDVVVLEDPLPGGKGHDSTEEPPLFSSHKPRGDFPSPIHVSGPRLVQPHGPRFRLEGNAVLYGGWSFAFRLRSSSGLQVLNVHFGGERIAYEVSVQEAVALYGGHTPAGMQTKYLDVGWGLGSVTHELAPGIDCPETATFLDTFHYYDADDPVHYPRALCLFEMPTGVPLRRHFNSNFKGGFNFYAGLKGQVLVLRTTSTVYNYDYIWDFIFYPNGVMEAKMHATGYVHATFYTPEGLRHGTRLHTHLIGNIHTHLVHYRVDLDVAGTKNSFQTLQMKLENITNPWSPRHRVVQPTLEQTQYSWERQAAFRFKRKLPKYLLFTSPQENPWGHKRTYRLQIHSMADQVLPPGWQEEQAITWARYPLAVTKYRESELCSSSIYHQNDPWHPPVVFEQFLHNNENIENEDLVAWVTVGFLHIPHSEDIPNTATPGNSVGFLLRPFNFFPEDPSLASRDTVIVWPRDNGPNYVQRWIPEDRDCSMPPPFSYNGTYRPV
Description: The Amplex® Red Assay (available from Thermo Fisher Scientific) provides a sensitive method for the detection of H2O2 generated during enzymatic reactions like the amine oxidation catalyzed by AOC1. The assay reagent is a colorless substrate (N-acetyl-3,7-dihydroxyphenoxazine) that reacts in a 1:1 stoichiometry with hydrogen peroxide (H2O2) to produce the fluorescent dye resorufin (7-hydroxyphenoxazin-3-one, excitation/emission maxima=570/585 nm).
An aliquot of 3 μL of the compound dilution is added to a 384 well plate (Optiplate, PS, flat bottom F, black, PERKIN ELMER, #6007270) in a DMSO concentration of 6.6%.
An AOC1 enzyme aliquot (#8297-AO-010, R&D Systems) is thawed on ice, diluted in reaction buffer and added in a volume of 7 μL to the wells to give a final assay concentration of 1 ng/well. After incubation of inhibitor and enzyme for 30 minutes at 37° C., the enzymatic reaction is started with the addition of 10 μL of Amplex® Red reaction mix (final assay concentration: 100 mM sodiumphosphate, 120 μM Amplex® Red reagent (#A22177 Molecular Probes), 1.5 U/mL Horseradish Peroxidase (#P8375 Sigma-Aldrich), 200 μM putrescine (#P7505 Sigma-Alrdich), 0.05% Pluronic F-127 (#P3000MP Sigma-Aldrich), pH 7.4, 37° C.).
After an incubation for 30 minutes at 37° C. the turnover of the substrate is determined directly (or after the addition of an excess of an amine-oxidase inhibitor) with a fluorescence reader (Ex 540 nm/Em 590 nm) like Envision 2104 Multilabel Reader (PERKIN ELMER).

[1] = comparison table, read-out: IC50 AOC3
[2] = comparison table, read-out: IC50 AOC2
[3] = comparison table, unit μM, read-out: IC50 AOC1
[4] = comparison table, read-out: IC50 AOC1

Sequence of human AOC3 enzyme (Q16853 whole entry): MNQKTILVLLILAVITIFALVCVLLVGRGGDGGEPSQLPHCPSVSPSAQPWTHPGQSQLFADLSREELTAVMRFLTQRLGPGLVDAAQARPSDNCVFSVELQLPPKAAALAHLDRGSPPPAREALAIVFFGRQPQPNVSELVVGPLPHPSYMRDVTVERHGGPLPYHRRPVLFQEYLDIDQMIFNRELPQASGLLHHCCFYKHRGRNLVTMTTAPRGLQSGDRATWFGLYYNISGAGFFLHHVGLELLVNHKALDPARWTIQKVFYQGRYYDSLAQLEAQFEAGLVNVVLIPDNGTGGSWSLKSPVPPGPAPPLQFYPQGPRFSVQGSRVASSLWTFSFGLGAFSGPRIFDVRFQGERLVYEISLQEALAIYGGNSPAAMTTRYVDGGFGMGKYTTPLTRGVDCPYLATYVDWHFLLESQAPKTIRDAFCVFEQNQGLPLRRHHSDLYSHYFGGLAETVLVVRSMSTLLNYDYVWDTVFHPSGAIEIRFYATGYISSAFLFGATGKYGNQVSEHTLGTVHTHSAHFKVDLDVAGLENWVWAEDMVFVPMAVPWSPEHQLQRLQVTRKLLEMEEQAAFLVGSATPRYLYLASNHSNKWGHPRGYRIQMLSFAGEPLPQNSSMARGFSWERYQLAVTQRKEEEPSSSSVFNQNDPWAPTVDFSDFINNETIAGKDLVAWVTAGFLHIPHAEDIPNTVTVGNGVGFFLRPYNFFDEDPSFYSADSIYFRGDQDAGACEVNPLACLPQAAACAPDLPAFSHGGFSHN

Row | SMILES | IC50 (human AOC3 enzyme; read-out: AOC3 IC50) [nM] | IC50 (AOC2; read-out: AOC2 IC50) [nM] | IC50 (AOC1; read-out: AOC1 IC50) [µM] | IC50 (human AOC3 enzyme; [1]) [nM] | fold less active against AOC2 as compared to AOC3 (ratio IC50 AOC2/IC50 AOC3) (AOC2) | IC50 (AOC2; [2]) [nM] | IC50 (AOC1; [3]) [µM] | IC50 (AOC1; [4]) [µM]
1 | CCNC(=O)C1(C)CCN(S(=O)(=O)c2ccc(OC/C(=C/F)CN)nc2)CC1 [Example 34] | 14 | 14 | 15.8 | – | – | – | – | –
2 | CCC(=O)NC1CCN(S(=O)(=O)c2ccc(OC/C(=C/F)CN)nc2)CC1 [Example 02] | 33 | 1140 | > 50 | – | – | – | – | –
3 | COC1CCN(S(=O)(=O)c2ccc(OC/C(=C/F)CN)nc2)C1.O=C(O)C(F)(F)F (stereo not drawn) [Example 40] | 26 | 125 | > 50 | 26 | ca. 5 fold | 125 | > 50 | –
4 | CN1CCN(C2CCN(S(=O)(=O)c3ccc(OC/C(=C/F)CN)nc3)CC2)C1=O [Example 21] | 20 | 190 | > 50 | – | – | – | – | –
5 | NC/C(=C\F)COc1ccc(S(=O)(=O)N2CCC(C(=O)N3CCOCC3)(c3ccccc3)CC2)cn1 [Example 09] | 39 | 489 | 6.17 | – | – | – | – | –
6 | COC1CN(S(=O)(=O)c2ccc(OC/C(=C/F)CN)cc2)C1 [Reference compound A, reference compound] | – | – | – | 13 | 22 fold | 287 | > 50 | –
7 | NC/C(=C\F)COc1ccc(S(=O)(=O)N2CCC(O)CC2)cn1.O=C(O)C(F)(F)F [Example 45] | 10 | 307 | 11.4 | – | ca. 30 fold | – | – | –
8 | NC/C(=C\F)COc1ccc(S(=O)(=O)N2CC(C3CCN(C(=O)C4CC4)CC3)C2)cn1 [Example 32] | 17 | 73 | 39.5 | – | – | – | – | –
9 | NC/C(=C\F)COc1ccc(S(=O)(=O)N2CCC(C(=O)N3CCOCC3)CC2)cn1 [Example 10] | 52 | 407 | > 50 | – | – | – | – | –
10 | NC/C(=C\F)COc1ccc(S(=O)(=O)N2C[C@H]3C[C@@]3(C(=O)N3CCOCC3)C2)cn1 [Example 30] | 46 | 126 | 11.4 | – | – | – | – | –
11 | COC(=O)C1(C)CCN(S(=O)(=O)c2ccc(OC/C(=C/F)CN)nc2)CC1 [Example 53] | 15 | 19 | > 50 | – | – | – | – | –
12 | CC(=O)NCC1CCN(S(=O)(=O)c2ccc(OC/C(=C/F)CN)nc2)CC1 [Example 15] | 38 | 263 | > 50 | – | – | – | – | –
13 | COC(=O)CC1CCN(S(=O)(=O)c2ccc(OC/C(=C/F)CN)nc2)CC1 [Example 22] | 11 | 188 | > 50 | – | – | – | – | –
14 | CO[C@H]1CCN(c2ncc(OC/C(=C/F)CN)cn2)C1 [Example 5 of WO 2018/027892, reference compound] | – | – | – | 13 | – | 497 | – | 0.268

Continued, values first:

Row | IC50 (human AOC3 enzyme; read-out: AOC3 IC50) [nM] | IC50 (AOC2; read-out: AOC2 IC50) [nM] | IC50 (AOC1; read-out: AOC1 IC50) [µM] | IC50 (human AOC3 enzyme; [1]) [nM] | fold less active against AOC2 as compared to AOC3 (ratio IC50 AOC2/IC50 AOC3) (AOC2) | IC50 (AOC2; [2]) [nM] | IC50 (AOC1; [3]) [µM] | IC50 (AOC1; [4]) [µM] | SMILES
15 | 67 | 551 | > 50 | – | – | – | – | – | NC/C(=C\F)COc1ccc(S(=O)(=O)N2CC[C@@H](O)C2)cn1 [Example 36]
16 | 21 | 121 | > 50 | – | – | – | – | – | NC/C(=C\F)COc1ccc(S(=O)(=O)N2CC(C(N)=O)C2)cn1 [Example 31]
17 | 37 | 524 | > 50 | – | – | – | – | – | CN(C(N)=O)C1CCN(S(=O)(=O)c2ccc(OC/C(=C/F)CN)nc2)CC1 [Example 08]
18 | 41 | 306 | 14.3 | – | – | – | – | – | CC(=O)N1CC(C2CCN(S(=O)(=O)c3ccc(OC/C(=C/F)CN)nc3)CC2)C1 [Example 14]
19 | 36 | 164 | 26.7 | – | – | – | – | – | NC/C(=C\F)COc1ccc(S(=O)(=O)N2CC[C@H](C(=O)N3CCOCC3)C2)cn1 [Example 25]
20 | 37 | 244 | > 50 | – | – | – | – | – | CC1(O)CN(S(=O)(=O)c2ccc(OC/C(=C/F)CN)nc2)C1 [Example 18]
21 | 26 | 61 | > 50 | – | – | – | – | – | CC1(C(N)=O)CCN(S(=O)(=O)c2ccc(OC/C(=C/F)CN)nc2)CC1 [Example 61]
22 | 20 | 87 | > 50 | 20 | – | 87 | – | > 50 | COC1CN(S(=O)(=O)c2ccc(OC/C(=C/F)CN)nc2)C1 [Example 42]
23 | 51 | 160 | > 50 | – | – | – | – | – | CN(C)C(=O)[C@H]1CCN(S(=O)(=O)c2ccc(OC/C(=C/F)CN)nc2)C1 [Example 27]
24 | 24 | 67 | 1.49 | – | – | – | – | – | CC1(O)CCN(S(=O)(=O)c2ccc(OC/C(=C/F)CN)nc2)CC1 [Example 48]
25 | 37 | 531 | > 50 | – | – | – | – | – | CNC(=O)NC1CCN(S(=O)(=O)c2ccc(OC/C(=C/F)CN)nc2)CC1 [Example 07]
26 | 14 | 574 | > 50 | – | – | – | – | – | CNC(=O)C1CCN(S(=O)(=O)c2ccc(OC/C(=C/F)CN)nc2)CC1 [Example 44, 1-[6-((E)-2-Aminomethyl-3-fluoro-allyloxy)-pyridine-3-sulfonyl]-piperidine-4-carboxylic acid methylamide trifluoroacetate]
27 | 16 | 69 | 36.5 | – | – | – | – | – | NC/C(=C\F)COc1ccc(S(=O)(=O)N2CCC(F)(F)C2)cn1 [Example 43]
28 | 9 | 315 | 41.8 | – | – | – | – | – | COC(=O)[C@H]1[C@@H]2CN(S(=O)(=O)c3ccc(OC/C(=C/F)CN)nc3)C[C@@H]21 [Example 52]
29 | 5 | 144 | 23.2 | – | – | – | – | – | NC/C(=C\F)COc1ccc(S(=O)(=O)N2CCCCC2)cn1 [Example 47]
